From DBAASP come the findings set out here.

Values after ≈ are worked out from the molar mass of the structure shown. Values joined by “and” are separate entries in the source; they are usually repeats but may differ in a detail not shown here. Identical values can stand only once. Some results are limits rather than exact numbers.

Some test systems named below: Escherichia coli 170; Acinetobacter baumannii; Escherichia coli; Staphylococcus aureus; Listeria innocua; Micrococcus luteus; Bacillus subtilis 168; Pseudomonas aeruginosa; Escherichia coli B; Candida krusei CCM 8271.
Common to all, as to assay: ≥ marks a high value that may be exact or a test limit, other limits are often not marked, values filed in µg/mL are converted to µM
Experiment [1] deals with Staphylococcus aureus USA 300.
The test system of experiment [2] is Staphylococcus epidermidis ATCC 35984.
For experiment [3], the system named is Staphylococcus aureus ATCC 25923.
The test system of experiment [4] is Staphylococcus aureus ATCC 29213.
Experiment [5] concerns Escherichia coli ATCC 25922.
Experiment [6] deals with Salmonella enterica subsp. enterica serovar Enteritidis.
The subject of experiment [7] is Candida albicans ATCC 2002.
In experiment [8] the test system is Pseudomonas aeruginosa CMCCB 10104.
For experiment [9], the system named is Enterobacter cloacae 2524.
Experiment [10] concerns Klebsiella pneumoniae 913.
In experiment [11] the test system is Pseudomonas aeruginosa 4677.
Experiment [12] relates to Pseudomonas aeruginosa ATCC 9027.
In experiment [13] the test system is Candida albicans ATCC 90028.
In experiment [14] the test system is Staphylococcus aureus USA 100.
Experiment [15] has as its system Staphylococcus aureus ATCC 33591.
Experiment [16] concerns Pseudomonas aeruginosa ATCC 27853.
Experiment [17] deals with Staphylococcus epidermidis ATCC 12228.
Experiment [18] deals with Salmonella enterica subsp. enterica serovar Typhimurium ATCC 14028.
Experiment [19] has as its system Shigella dysenteriae ATCC 9752.
The test system of experiment [20] is Candida albicans ATCC 64550.
Experiment [21] relates to Micrococcus luteus ATCC 10240.
The test system of experiment [22] is Staphylococcus aureus ATCC 6538P.
Experiment [23] concerns Bacillus subtilis ATCC 6633.
The test system of experiment [24] is Klebsiella pneumoniae ATCC 10031.
Experiment [25] relates to Staphylococcus aureus TK784.
For experiment [26], the system named is Staphylococcus epidermidis PCM 2118.
Experiment [27] concerns Staphylococcus aureus PMC 1650.
For experiment [28], the system named is Candida albicans F7-39/IDE99.
The test system of experiment [29] is Staphylococcus aureus PCM 2054.
Experiment [30] has as its system Escherichia coli PCM 2057.
In experiment [31] the test system is Staphylococcus epidermidis PCM 521.
Experiment [32] has as its system Candida glabrata CCM 8270.
Experiment [33] relates to Candida parapsilosis CCM 8260.

The MIC is the lowest concentration found to suppress growth. Lower therefore signals inhibition by little substance. On to `CC[C@H](C)[C@H](NC(=O)CN)C(=O)N[C@H](C(=O)N[C@@H](CCCCN)C(=O)N[C@H](C(=O)N[C@H](C(=O)N[C@@H](CCCCN)C(=O)N[C@@H](CO)C(=O)N[C@@H](CC(C)C)C(=O)N[C@H](C(=O)N[C@@H](CCC(=O)O)C(=O)N[C@@H](CCC(N)=O)C(=O)N[C@@H](Cc1ccccc1)C(=O)N[C@H](C(=O)NCC(=O)N[C@@H](CCCCN)C(=O)O)[C@@H](C)O)[C@@H](C)CC)[C@@H](C)CC)C(C)C)[C@@H](C)CC` [GIIKVIKSLIEQFTGK], for which the minimal inhibitory concentration (MIC) in experiment [1] is at least 64 µM; in experiment [2] it was at least 42 µM.
Regarding `CC[C@H](C)[C@H](NC(=O)[C@H](CCCCN)NC(=O)[C@H](CCCCN)NC(=O)CNC(=O)[C@@H](NC(=O)CNC(=O)[C@H](CC(C)C)NC(=O)[C@@H](NC(=O)CNC(=O)[C@H](CO)NC(=O)[C@H](CC(C)C)NC(=O)[C@H](CC(C)C)NC(=O)CN)C(C)C)C(C)C)C(=O)N[C@H](C(=O)N[C@H]1CSSC[C@@H](C(=O)O)NC(=O)[C@H](CC(C)C)NC(=O)CNC(=O)[C@H](CO)NC(=O)[C@H](CC(C)C)NC(=O)CNC1=O)C(C)C` [GLLSGVLGVGKKIVCGLSGLC], the minimal inhibitory concentration (MIC) in [3] was 5.27 µM (≈ 10.4 µg/mL); in experiment [4], 11.5 µM (≈ 22.6 µg/mL); in [5] it was 2.63 µM and 5.73 µM; in experiment [6], at least 64.9 µM; in experiment [7], 2.63 µM (≈ 5.19 µg/mL); in experiment [8], 5.27 µM (≈ 10.4 µg/mL).
As to `CC[C@H](C)[C@H](N)C(=O)N[C@@H](C)C(=O)N[C@@H](CO)C(=O)N[C@@H](CCCCN)C(=O)N[C@H](C(=O)N[C@@H](C)C(=O)N[C@@H](CC(N)=O)C(=O)N[C@H](C(=O)N[C@H](C(=O)N[C@@H](CCC(N)=O)C(=O)N[C@@H](CCCCN)C(=O)N[C@@H](CC(C)C)C(=O)N[C@@H](CCCCN)C(=O)N[C@@H](CCCN=C(N)N)C(=O)N[C@@H](CCCCN)C(=O)N[C@@H](C)C(=O)N[C@@H](CCCCN)C(=O)N[C@@H](CC(N)=O)C(=O)N[C@@H](C)C(=O)N[C@H](C(=O)O)C(C)C)C(C)C)[C@@H](C)O)C(C)C` [IASKVANTVQKLKRKAKNAV], the MIC in experiment [9] was at least 50 µM; in experiment [10], at least 50 µM; in experiment [5], 25 µM (≈ 54.2 µg/mL); in [11], at least 50 µM; in the experiment with Escherichia coli 170 it was at least 50 µM; in the experiment on Acinetobacter baumannii it was at least 50 µM.
Regarding `NCCCCC(N)C(=O)NC(Cc1ccc(O)cc1)C(=O)NC(CCCN=C(N)N)C(=O)O` (stereo unspecified) [KYR], the MIC was 1 µM (≈ 0.466 µg/mL) against Escherichia coli; 1 µM (≈ 0.466 µg/mL) against Staphylococcus aureus; at least 100 µM in [1]; 1 µM (≈ 0.466 µg/mL) in the experiment with Listeria innocua; over 100 µM in experiment [12]; 1 µM (≈ 0.466 µg/mL) in [6]. In addition, the MIC is at least 100 µM in experiment [13], 2 µM (≈ 0.931 µg/mL) in the experiment with Micrococcus luteus and at least 100 µM in [14].
As to `CC[C@H](C)[C@H](NC(=O)[C@H](CCCCN)NC(=O)[C@@H](NC(=O)[C@H](Cc1ccccc1)NC(=O)[C@H](C)NC(=O)[C@H](CCCCN)NC(=O)CNC(=O)[C@H](Cc1ccccc1)NC(=O)[C@H](CCCCN)NC(=O)[C@H](CCCCN)NC(=O)[C@H](C)NC(=O)[C@H](CCCCN)NC(=O)[C@H](CCCCN)NC(=O)[C@@H](N)CC(C)C)C(C)C)C(=O)N[C@@H](CC(C)C)C(=O)N[C@@H](CCCCN)C(=O)N[C@@H](CCCCN)C(N)=O` [LKKAKKFGKAFVKILKK], the MIC is over 259 µM in [3], 8.1 µM (≈ 16 µg/mL) in experiment [2], at least 259 µM in experiment [15] and 1.43 µM (≈ 2.83 µg/mL) in [16].
Turning to `CC(C)C[C@H](NC(=O)[C@H](Cc1c[nH]c2ccccc12)NC(=O)[C@H](CCCCN)NC(=O)[C@H](CC(C)C)NC(=O)[C@H](CC(C)C)NC(=O)[C@H](Cc1c[nH]c2ccccc12)NC(=O)[C@H](CCCCN)NC(=O)[C@H](CC(C)C)NC(=O)[C@@H](N)CC(C)C)C(=O)N[C@@H](CCCCN)C(=O)N[C@@H](CCCCN)C(N)=O` [LLKWLLKWLKK], the MIC is 0.885 µM (≈ 1.3 µg/mL) in experiment [17]; 27.2 µM (≈ 40 µg/mL) in experiment [18]; 6.81 µM (≈ 9.99 µg/mL) in experiment [19]; at least 100 µM in experiment [20]; 0.885 µM (≈ 1.3 µg/mL) in [21]; 6.81 µM (≈ 9.99 µg/mL) in experiment [5]. Further, the MIC was determined as 0.885 µM (≈ 1.3 µg/mL) in [22]; 0.885 µM (≈ 1.3 µg/mL) in experiment [23]; 6.81 µM (≈ 9.99 µg/mL) in experiment [16]; 13.6 µM (≈ 20 µg/mL) in [24]; 3.4 µM (≈ 5 µg/mL) in experiment [25].
For the compound `CC[C@H](C)[C@H](NC(=O)[C@H](CCCCN)NC(=O)CNC(=O)[C@H](CC(C)C)NC(=O)[C@@H](NC(=O)[C@H](CCCCN)NC(=O)[C@H](CCCCN)NC(=O)[C@H](Cc1c[nH]c2ccccc12)NC(=O)[C@H](CC(N)=O)NC(=O)[C@@H](N)C(C)C)C(C)C)C(=O)N[C@H](C(=O)N[C@@H](CCCCN)C(=O)N[C@H](C(=O)N[C@@H](C)C(=O)N[C@@H](CCCCN)C(N)=O)C(C)C)[C@@H](C)CC` [VNWKKVLGKIIKVAK], the MIC in [26] stood at 3.62 µM (≈ 6.25 µg/mL); against Staphylococcus aureus, 14.3 µM (≈ 24.6 µg/mL); in experiment [27] it was 14.5 µM (≈ 25 µg/mL); against Bacillus subtilis 168, 0.8 µM (≈ 1.38 µg/mL); in [28], 9.1 µM (≈ 15.7 µg/mL); in experiment [29], 29 µM (≈ 50 µg/mL). The MIC against Pseudomonas aeruginosa is 15.8 µM (≈ 27.2 µg/mL); in experiment [30], 7.25 µM (≈ 12.5 µg/mL); against Escherichia coli B, 1.7 µM (≈ 2.93 µg/mL); in experiment [31], 7.25 µM (≈ 12.5 µg/mL); in experiment [32] it was 29 µM (≈ 50 µg/mL); in the experiment with Candida krusei CCM 8271, 29 µM (≈ 50 µg/mL). Besides, the minimal inhibitory concentration (MIC) in experiment [33] is 29 µM (≈ 50 µg/mL).
